Experimental data from EP1644371B1, “PYRAZOLOISOQUINOLINE DERIVATIVES AS KINASE INHIBITORS” (Aventis Pharmaceuticals Inc., priority 2003, dated 2005).
pIC50: −log10 of the molar value. Like-named read-outs stand apart in the source and are kept apart here.

How the values were obtained:
Type in all cases: cell-based
[1] = tested on: IL1 β-stimulated human peripheral blood lymphocytes; assay: Cytokine release in IL1β-stimulated human peripheral blood lymphocytes (ELISA); conditions: Lymphocyte
Method: The pyrazoloisoquinoline derivatives according to the invention were tested for inhibitory activity against NIK in various in vitro assay systems. In this connection, human peripheral blood lymphocytes were preincubated for 1 h with different concentrations of the compounds and then stimulated for 24 h with LPS or IL1 β. […] The cytotoxicity was measured by way of LDH release using a commercially obtainable test kit and the LD50 for the given compound was determined.

[2] = tested on: LPS-stimulated heparinized whole human blood; assay: Release of IL1β, TNFα and IL6 in LPS-stimulated heparinized whole human blood; conditions: 24 h
Method: In another assay, heparinized whole human blood was preincubated for 1 h with different concentrations of the compounds and then stimulated with LPS for 24 h. Commercially available test kits were used to measure the release of IL1β, TNFα and IL6 in the supernatant after 24 h, and the IC50 for the given compound was determined.

[3] = tested on: LPS-stimulated human peripheral blood lymphocytes; assay: Cytokine release in LPS-stimulated human peripheral blood lymphocytes (ELISA); conditions: Lymphocyte
Method: (§1) The pyrazoloisoquinoline derivatives according to the invention were tested for inhibitory activity against NIK in various in vitro assay systems. In this connection, human peripheral blood lymphocytes were preincubated for 1 h with different concentrations of the compounds and then stimulated for 24 h with LPS or IL1 β. After that, a commercially obtainable ELISA test kit was used to measure the release of TNFα in the culture supernatant, and the IC50 for the given compound was determined. The cytotoxicity was measured by way of LDH release using a commercially obtainable test kit and the LD50 for the given compound was determined.

[4] = tested on: human peripheral blood lymphocytes; assay: Cytotoxicity by LDH release
Method: as §1

[5] = 1 h preincubation, 24 h stimulation, read-out: TNFα release IC50
[6] = IL1 β-stimulated human peripheral blood lymphocytes (Table 2)
[7] = LPS-stimulated human peripheral blood lymphocytes (Table 1)

Molecule `c1ccc(-c2nc3c(-c4ccccc4)n[nH]c3c3ccccc23)cc1` [Example 1, 3,5-Diphenyl-1H-pyrazolo[4,3-c]isoquinoline] has a pIC50 [1, 5] of 5.30, a pIC50 ([1]; read-out: IL6 release IC50) of 4.10 and a pIC50 ([2]; read-out: IL1β release IC50) of 4.48. The pIC50 ([2]; read-out: IL6 release IC50) was < 4.00, the pIC50 ([2]; read-out: TNFα release IC50) was 4.90 and the pIC50 [3, 5] was 5.72. For the same molecule, the pIC50 ([3]; read-out: IL6 release IC50) was 4.10, the “Cytotoxicity LD50” value [4, 6] was >100 µM and the “Cytotoxicity LD50” value [4, 7] was > 100 µM.
For `COc1cccc(-c2nc3c(C)n[nH]c3c3ccccc23)c1` [Example 2, 5-(3-Methoxyphenyl)-3-methyl-1H-pyrazolo[4,3-c]isoquinoline], the pIC50 [1, 5] was 4.46, the pIC50 ([1]; read-out: IL6 release IC50) was < 4.00 and the pIC50 ([2]; read-out: IL1β release IC50) was 5.89. The pIC50 ([2]; read-out: IL6 release IC50) was 5.15, the pIC50 ([2]; read-out: TNFα release IC50) was 5.92 and the pIC50 [3, 5] was 5.05. For the same molecule, the pIC50 ([3]; read-out: IL6 release IC50) was < 4.00, the “Cytotoxicity LD50” value [4, 6] was > 100 µM and the “Cytotoxicity LD50” value [4, 7] was > 100 µM.
With `Cc1n[nH]c2c1nc(-c1cccc(O)c1)c1ccccc12` [Example 3, 3-(3-Methyl-1H-pyrazolo[4,3-c]isoquinolin-5-yl)phenol] the pIC50 [1, 5] was 5.10, the pIC50 ([1]; read-out: IL6 release IC50) was < 4.00 and the pIC50 ([2]; read-out: IL1β release IC50) was 4.54. The pIC50 ([2]; read-out: IL6 release IC50) was < 4.00, the pIC50 ([2]; read-out: TNFα release IC50) was 5.30 and the pIC50 [3, 5] was 5.12. For the same molecule, the pIC50 ([3]; read-out: IL6 release IC50) was 4.10, the “Cytotoxicity LD50” value [4, 6] was > 100 µM and the “Cytotoxicity LD50” value [4, 7] was > 100 µM.
